Key:
Experiment in all cases: relative viability (nuclei count vs DMSO), 5 days (fraction); higher = more cells survive
VX-11e + Luminespib = compound: CC1=CN=C(N=C1C2=CNC(=C2)C(=O)N[C@H](CO)C3=CC(=CC=C3)Cl)NC4=C(C=C(C=C4)F)Cl [VX-11e] + CCNC(=O)c1noc(-c2cc(C(C)C)c(O)cc2O)c1-c1ccc(CN2CCOCC2)cc1 [Luminespib] (partner 0.01 µM)
Procedure, shortened: (§1)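 A single step with final 0.05% Triton X-100, 1% formaldehyde and 1 ug/ml Hoechst fixed the cells and stained nuclei 5 days after treatment. Lung cancer cell lines in 1536-well plates had been treated by pin tool the day after seeding with one drug alone or a fixed anchor-drug dose plus five library-drug doses (not always all listed) in √10 steps, and nuclei were counted on 4× images. Relative viability is the ratio of nuclei in treated wells to nuclei in vehicle wells, taken as the median of duplicate plates.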

VX-11e + Foretinib = compound: CC1=CN=C(N=C1C2=CNC(=C2)C(=O)N[C@H](CO)C3=CC(=CC=C3)Cl)NC4=C(C=C(C=C4)F)Cl [VX-11e] + COc1cc2c(Oc3ccc(NC(=O)C4(C(=O)Nc5ccc(F)cc5)CC4)cc3F)ccnc2cc1OCCCN1CCOCC1 [Foretinib] (partner 0.25 µM)
Procedure, shortened: as §1

VX-11e + Dasatinib = compound: CC1=CN=C(N=C1C2=CNC(=C2)C(=O)N[C@H](CO)C3=CC(=CC=C3)Cl)NC4=C(C=C(C=C4)F)Cl [VX-11e] + Cc1nc(Nc2ncc(C(=O)Nc3c(C)cccc3Cl)s2)cc(N2CCN(CCO)CC2)n1 [Dasatinib] (partner 0.075 µM)
Procedure, shortened: as §1

VX-11e + Decitabine = compound: CC1=CN=C(N=C1C2=CNC(=C2)C(=O)N[C@H](CO)C3=CC(=CC=C3)Cl)NC4=C(C=C(C=C4)F)Cl [VX-11e] + Nc1ncn([C@H]2C[C@H](O)[C@@H](CO)O2)c(=O)n1 [Decitabine] (partner 2 µM)
Procedure, shortened: as §1

| Cell Line | relative viability (VX-11e + Luminespib; first compound 0.04 µM) | relative viability (VX-11e + Luminespib; first compound 0.1265 µM) | relative viability (VX-11e + Luminespib; first compound 0.4 µM) | relative viability (VX-11e + Luminespib; first compound 1.265 µM) | relative viability (VX-11e + Luminespib; first compound 4 µM) | relative viability (VX-11e + Foretinib; first compound 0.04 µM) | relative viability (VX-11e + Foretinib; first compound 0.1265 µM) | relative viability (VX-11e + Foretinib; first compound 0.4 µM) | relative viability (VX-11e + Foretinib; first compound 1.265 µM) | relative viability (VX-11e + Foretinib; first compound 4 µM) | relative viability (VX-11e + Dasatinib; first compound 0.04 µM) | relative viability (VX-11e + Dasatinib; first compound 0.1265 µM) | relative viability (VX-11e + Dasatinib; first compound 0.4 µM) | relative viability (VX-11e + Dasatinib; first compound 1.265 µM) | relative viability (VX-11e + Dasatinib; first compound 4 µM) | relative viability (VX-11e + Decitabine; first compound 0.04 µM) | relative viability (VX-11e + Decitabine; first compound 0.1265 µM) | relative viability (VX-11e + Decitabine; first compound 0.4 µM) | relative viability (VX-11e + Decitabine; first compound 1.265 µM) | relative viability (VX-11e + Decitabine; first compound 4 µM) |
| --- | --- | --- | --- | --- | --- | --- | --- | --- | --- | --- | --- | --- | --- | --- | --- | --- | --- | --- | --- | --- |
| LU99A | 0.3 | 0.249 | 0.209 | 0.336 | 0.172 | 0.806 | 0.729 | 0.894 | 0.805 | 0.362 | 0.505 | 0.562 | 0.261 | 0.252 | 0.199 | 0.872 | 0.81 | 0.822 | 0.727 | 0.347 |
| LXF-289 | 0.641 | 0.592 | 0.659 | 0.656 | 0.407 | 1 | 0.877 | 0.88 | 0.85 | 0.637 | 0.29 | 0.199 | 0.249 | 0.336 | 0.172 | 0.364 | 0.376 |  | 0.386 | 0.406 |
| NCI-H23 | 0.237 | 0.225 | 0.237 | 0.182 | 0.185 | 0.896 | 0.984 |  | 0.767 | 0.472 | 0.552 | 0.711 |  | 0.225 | 0.221 | 0.279 | 0.312 | 0.306 | 0.284 | 0.22 |
| NCI-H322M | 0.846 | 0.687 | 0.303 | 0.658 | 0.606 | 0.924 | 0.748 | 0.981 | 0.763 | 0.659 | 0.224 | 0.208 | 0.27 | 0.252 | 0.225 | 0.737 | 0.723 | 0.683 | 0.607 | 0.614 |
| NCI-H358 |  | 0.312 | 0.208 | 0.464 | 0.117 | 0.354 | 0.541 | 0.347 | 0.434 | 0.147 | 0.17 | 0.125 | 0.0855 | 0.162 | 0.103 | 0.232 | 0.203 | 0.124 | 0.222 | 0.142 |
| NCI-H441 | 0.345 | 0.31 |  | 0.459 | 0.323 | 1.14 | 1.2 |  | 1.05 | 0.937 | 0.685 | 0.814 |  | 0.502 | 0.318 | 0.282 | 0.273 |  | 0.218 | 0.306 |
| NCI-H460 | 0.0317 | 0.0379 | 0.0305 | 0.0413 | 0.0238 | 0.872 | 0.984 | 0.896 | 0.872 | 0.189 | 0.476 | 0.515 | 0.23 | 0.266 | 0.0901 | 0.568 | 0.43 | 0.165 | 0.472 | 0.184 |
| NCI-H520 | 0.205 | 0.183 | 0.19 | 0.272 | 0.207 | 0.746 | 0.715 | 0.69 | 0.919 | 0.569 | 0.175 | 0.188 | 0.199 | 0.338 | 0.293 | 0.539 | 0.533 | 0.492 | 0.668 | 0.476 |
| NCI-H596 | 0.898 | 0.982 | 0.699 | 0.755 | 0.765 | 0.854 | 0.952 | 0.775 | 0.79 | 0.506 | 0.542 | 0.516 | 0.466 | 0.425 | 0.419 | 0.864 | 1.05 | 1.01 | 0.998 | 0.834 |
| NCI-H647 | 0.248 | 0.329 | 0.118 | 0.24 | 0.111 | 1.26 | 1.12 | 1.19 | 1.05 | 0.405 | 0.23 | 0.215 | 0.0848 | 0.123 | 0.0992 | 0.378 | 0.355 | 0.349 | 0.537 | 0.449 |
| NCI-H650 | 0.749 | 0.8 | 0.606 | 0.772 | 0.677 | 1.09 | 1.04 | 1.1 | 0.993 | 1.1 | 0.418 | 0.467 | 0.425 | 0.414 | 0.398 | 0.386 | 0.312 | 0.325 | 0.403 | 0.371 |
| NCI-H661 | 0.981 | 0.913 | 0.937 | 0.907 | 0.603 | 1.03 | 1.04 | 1.05 | 1.07 | 0.66 | 0.863 | 0.799 | 0.784 | 0.684 | 0.352 | 0.514 | 0.491 | 0.502 | 0.52 | 0.432 |
| NCI-H727 | 0.293 | 0.294 | 0.291 | 0.312 | 0.371 | 0.76 | 0.775 | 0.846 | 0.55 | 0.302 | 0.355 | 0.279 | 0.337 | 0.415 | 0.258 | 0.599 | 1.07 | 0.72 | 0.638 | 0.421 |
| NCI-H838 | 0.413 | 0.273 | 0.207 | 0.347 | 0.264 | 1.03 | 1.11 | 1.05 | 1.1 | 0.779 | 0.255 | 0.326 | 0.222 | 0.247 | 0.267 | 0.44 | 0.428 | 0.447 | 0.474 | 0.524 |
| NCI-H1355 | 0.681 | 0.683 | 0.552 | 0.638 | 0.47 | 0.93 | 0.94 | 0.933 | 0.883 | 0.543 | 0.523 | 0.669 | 0.334 | 0.43 | 0.321 | 0.401 | 0.376 | 0.34 | 0.413 | 0.31 |
| NCI-H1395 | 0.804 | 0.637 | 0.423 | 0.682 | 0.46 | 1.05 | 0.898 | 0.931 | 1 | 0.666 | 0.448 | 0.383 | 0.346 | 0.398 | 0.376 | 0.734 | 0.721 |  | 0.695 | 0.62 |
